These results are taken from ChEMBL document CHEMBL3621105, “Synthesis and evaluation of a bis-3-chloropiperidine derivative incorporating an anthraquinone pharmacophore” (Bioorg Med Chem Lett, 2015).

Calls of active or inactive are those of the source. The calls are words filed in the database; no cut-off is given here.

Assay [1] can be described thus: Induction of alkylation of 5'-FAM-labelled scrambled duplex oligonucleotide DNA (unknown origin) at guanine residues G1 to G4 at 5 to 50 uM after 24 hrs by sequencing gel analysis.
In assay [2] the test system is Escherichia coli. The assay can be described thus: Induction of Escherichia coli supercoiled pBR322 DNA cleavage assessed as formation of open circular form of DNA after 24 hrs at 25 degC by agarose gel electrophoresis.
Assay [3] relates to Escherichia coli. Description: Induction of Escherichia coli supercoiled pBR322 DNA cleavage assessed as formation of linear form of DNA at 0.5 to 50 uM after 24 hrs at 25 degC by agarose gel electrophoresis.
The nature of assay [4]: Induction of alkylation of 5'-FAM-labelled scrambled duplex oligonucleotide DNA (unknown origin) at guanine residues G1 to G4 at 50 uM after 24 hrs by sequencing gel analysis.
The subject of assay [5] is Escherichia coli. The assay can be described thus: Induction of Escherichia coli supercoiled pBR322 DNA cleavage at 50 uM after 24 hrs at 25 degC by agarose gel electrophoresis.
A short description of assay [6]: Induction of alkylation of 5'-FAM-labelled scrambled duplex oligonucleotide DNA (unknown origin) at guanine residues G1 to G4 after 24 hrs by sequencing gel analysis.

For the molecule `CC1(C)CC(Cl)CN(CCCC[C@@H](C(=O)OCc2ccc3c(c2)C(=O)c2ccccc2C3=O)N2CC(Cl)CC(C)(C)C2)C1` (some centres not stated), in assay [1], the result was Active. In addition, the Activity result in the assay on Escherichia coli [2] was “Dose-dependent effect”. Moreover, in the assay with Escherichia coli [3], the result was inactive.

Consider `O=C(O)CCCc1ccc(N(CCCl)CCCl)cc1`, for which the outcome (in assay [4]; in the assay on Escherichia coli [5]) was inactive.

For the molecule `COc1ccc(OC(=O)[C@H](CCCCN2CC(Cl)CC(C)(C)C2)N2CC(Cl)CC(C)(C)C2)c2ccccc12` (some centres not stated), the Activity result in assay [6] is “Dose-dependent effect”.

Turning to `CC1(C)CC(Cl)CN(CCCC[C@@H](C(=O)Oc2cccc3ccccc23)N2CC(Cl)CC(C)(C)C2)C1` (some centres not stated), the Activity result in assay [6] was “Dose-dependent effect”.
